± gives the standard deviation of the averaged measurements.
Assays:
[1] = compound: CCN(CC)CCCCNc1ncc2cc(-c3cc(OC)cc(OC)c3)c(NC(=O)NC(C)(C)C)nc2n1; test: surviving fraction relative to DMSO-only wells; higher = less growth inhibition; details: exposure time: 5 days
Summary of the method: (§1)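 Surviving fraction was calculated by normalising CellTiter-Glo luminescence to the median of DMSO-only wells. Tumour cell lines in log phase were seeded in 384-well plates at 250–500 cells per well, and 24 hours later were exposed continuously for five days to inhibitors at 0.5, 1, 5, 10, 50, 100, 500 and 1000 nM.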

DOXORUBICIN = compound: COc1cccc2c1C(=O)c1c(O)c3c(c(O)c1C2=O)C[C@@](O)(C(=O)CO)C[C@@H]3O[C@H]1C[C@H](N)[C@H](O)[C@H](C)O1 [DOXORUBICIN]; test: as above; details: exposure time: 5 days
Summary of the method: as §1

CAL72 BONE
surviving fraction ([1]; 0.5 nM): 1.053 ± 0.0092 | surviving fraction ([1]; 1 nM): 1.08 ± 0.054 | surviving fraction ([1]; 5 nM): 1.08 ± 0.082 | surviving fraction ([1]; 10 nM): 1.01 ± 0.024 | surviving fraction ([1]; 50 nM): 0.833 ± 0.038 | surviving fraction ([1]; 100 nM): 0.484 ± 0.013 | surviving fraction ([1]; 500 nM): 0.281 ± 0.022 | surviving fraction ([1]; 1000 nM): 0.208 ± 0.026 | surviving fraction (DOXORUBICIN; 0.5 nM): 1.05 ± 0.041 | surviving fraction (DOXORUBICIN; 1 nM): 0.743 ± 0.018 | surviving fraction (DOXORUBICIN; 5 nM): 1.01 ± 0.033 | surviving fraction (DOXORUBICIN; 10 nM): 0.826 ± 0.045 | surviving fraction (DOXORUBICIN; 50 nM): 0.298 ± 0.042 | surviving fraction (DOXORUBICIN; 100 nM): 0.299 ± 0.018 | surviving fraction (DOXORUBICIN; 500 nM): 0.0937 ± 0.0021 | surviving fraction (DOXORUBICIN; 1000 nM): 0.114 ± 0.0055

CAL120 BREAST
surviving fraction ([1]; 0.5 nM): 0.933 ± 0.032 | surviving fraction ([1]; 1 nM): 0.918 ± 0.031 | surviving fraction ([1]; 5 nM): 0.9335 ± 0.0035 | surviving fraction ([1]; 10 nM): 0.928 ± 0.023 | surviving fraction ([1]; 50 nM): 0.852 ± 0.029 | surviving fraction ([1]; 100 nM): 0.746 ± 0.053 | surviving fraction ([1]; 500 nM): 0.565 ± 0.021 | surviving fraction ([1]; 1000 nM): 0.537 ± 0.06 | surviving fraction (DOXORUBICIN; 0.5 nM): 0.955 ± 0.015 | surviving fraction (DOXORUBICIN; 1 nM): 0.916 ± 0.019 | surviving fraction (DOXORUBICIN; 5 nM): 0.902 ± 0.024 | surviving fraction (DOXORUBICIN; 10 nM): 0.822 ± 0.065 | surviving fraction (DOXORUBICIN; 50 nM): 0.401 ± 0.038 | surviving fraction (DOXORUBICIN; 100 nM): 0.285 ± 0.019 | surviving fraction (DOXORUBICIN; 500 nM): 0.0702 ± 0.0011 | surviving fraction (DOXORUBICIN; 1000 nM): 0.0468 ± 0.0028

CASKI CERVIX
surviving fraction ([1]; 0.5 nM): 0.927 ± 0.03 | surviving fraction ([1]; 1 nM): 0.907 ± 0.022 | surviving fraction ([1]; 5 nM): 0.953 ± 0.056 | surviving fraction ([1]; 10 nM): 0.982 ± 0.042 | surviving fraction ([1]; 50 nM): 0.996 ± 0.013 | surviving fraction ([1]; 100 nM): 0.941 ± 0.05 | surviving fraction ([1]; 500 nM): 0.751 ± 0.035 | surviving fraction ([1]; 1000 nM): 0.602 ± 0.014 | surviving fraction (DOXORUBICIN; 0.5 nM): 0.684 ± 0.14 | surviving fraction (DOXORUBICIN; 1 nM): 0.85 ± 0.04 | surviving fraction (DOXORUBICIN; 5 nM): 0.221 ± 0.044 | surviving fraction (DOXORUBICIN; 10 nM): 0.292 ± 0.049 | surviving fraction (DOXORUBICIN; 50 nM): 0.035 ± 0.005 | surviving fraction (DOXORUBICIN; 100 nM): 0.143 ± 0.032 | surviving fraction (DOXORUBICIN; 500 nM): 0.0187 ± 0.0021 | surviving fraction (DOXORUBICIN; 1000 nM): 0.0253 ± 0.0015

CHLA90 AUTONOMIC GANGLIA
surviving fraction ([1]; 0.5 nM): 0.906 ± 0.053 | surviving fraction ([1]; 1 nM): 1.02 ± 0.046 | surviving fraction ([1]; 5 nM): 0.892 ± 0.058 | surviving fraction ([1]; 10 nM): 0.9023 ± 0.0046 | surviving fraction ([1]; 50 nM): 0.907 ± 0.036 | surviving fraction ([1]; 100 nM): 0.912 ± 0.022 | surviving fraction ([1]; 500 nM): 0.7 ± 0.035 | surviving fraction ([1]; 1000 nM): 0.598 ± 0.072 | surviving fraction (DOXORUBICIN; 0.5 nM): 1 ± 0.024 | surviving fraction (DOXORUBICIN; 1 nM): 0.982 ± 0.024 | surviving fraction (DOXORUBICIN; 5 nM): 0.866 ± 0.053 | surviving fraction (DOXORUBICIN; 10 nM): 0.763 ± 0.041 | surviving fraction (DOXORUBICIN; 50 nM): 0.414 ± 0.038 | surviving fraction (DOXORUBICIN; 100 nM): 0.187 ± 0.026 | surviving fraction (DOXORUBICIN; 500 nM): 0.054 ± 0.0035 | surviving fraction (DOXORUBICIN; 1000 nM): 0.0323 ± 0.0021

CME SYNOVIAL
surviving fraction ([1]; 0.5 nM): 1.08 ± 0.089 | surviving fraction ([1]; 1 nM): 1.254 ± 0.0095 | surviving fraction ([1]; 5 nM): 1.24 ± 0.14 | surviving fraction ([1]; 10 nM): 1.25 ± 0.16 | surviving fraction ([1]; 50 nM): 1.18 ± 0.1 | surviving fraction ([1]; 100 nM): 1.22 ± 0.05 | surviving fraction ([1]; 500 nM): 1.06 ± 0.068 | surviving fraction ([1]; 1000 nM): 0.969 ± 0.11 | surviving fraction (DOXORUBICIN; 0.5 nM): 1.14 ± 0.094 | surviving fraction (DOXORUBICIN; 1 nM): 0.998 ± 0.15 | surviving fraction (DOXORUBICIN; 5 nM): 0.567 ± 0.12 | surviving fraction (DOXORUBICIN; 10 nM): 0.328 ± 0.037 | surviving fraction (DOXORUBICIN; 50 nM): 0.237 ± 0.023 | surviving fraction (DOXORUBICIN; 100 nM): 0.215 ± 0.016 | surviving fraction (DOXORUBICIN; 500 nM): 0.203 ± 0.013 | surviving fraction (DOXORUBICIN; 1000 nM): 0.284 ± 0.036

COLO320DM LARGE INTESTINE
surviving fraction ([1]; 0.5 nM): 0.959 ± 0.04 | surviving fraction ([1]; 1 nM): 1.14 ± 0.037 | surviving fraction ([1]; 5 nM): 1.11 ± 0.08 | surviving fraction ([1]; 10 nM): 1.05 ± 0.072 | surviving fraction ([1]; 50 nM): 1.06 ± 0.064 | surviving fraction ([1]; 100 nM): 1.1 ± 0.11 | surviving fraction ([1]; 500 nM): 1.03 ± 0.068 | surviving fraction ([1]; 1000 nM): 1.1 ± 0.041 | surviving fraction (DOXORUBICIN; 0.5 nM): 1.07 ± 0.064 | surviving fraction (DOXORUBICIN; 1 nM): 1.13 ± 0.02 | surviving fraction (DOXORUBICIN; 5 nM): 1.13 ± 0.12 | surviving fraction (DOXORUBICIN; 10 nM): 1.09 ± 0.035 | surviving fraction (DOXORUBICIN; 50 nM): 1.05 ± 0.091 | surviving fraction (DOXORUBICIN; 100 nM): 0.787 ± 0.14 | surviving fraction (DOXORUBICIN; 500 nM): 0.446 ± 0.014 | surviving fraction (DOXORUBICIN; 1000 nM): 0.388 ± 0.02

DU4475 BREAST
surviving fraction ([1]; 0.5 nM): 0.845 ± 0.2 | surviving fraction ([1]; 1 nM): 0.76 ± 0.22 | surviving fraction ([1]; 5 nM): 0.743 ± 0.13 | surviving fraction ([1]; 10 nM): 0.795 ± 0.19 | surviving fraction ([1]; 50 nM): 0.814 ± 0.16 | surviving fraction ([1]; 100 nM): 0.762 ± 0.11 | surviving fraction ([1]; 500 nM): 0.702 ± 0.2 | surviving fraction ([1]; 1000 nM): 0.703 ± 0.18 | surviving fraction (DOXORUBICIN; 0.5 nM): 0.818 ± 0.31 | surviving fraction (DOXORUBICIN; 1 nM): 1.23 ± 0.41 | surviving fraction (DOXORUBICIN; 5 nM): 0.233 ± 0.071 | surviving fraction (DOXORUBICIN; 10 nM): 0.139 ± 0.054 | surviving fraction (DOXORUBICIN; 50 nM): 0.029 ± 0.0066 | surviving fraction (DOXORUBICIN; 100 nM): 0.0287 ± 0.0051 | surviving fraction (DOXORUBICIN; 500 nM): 0.025 ± 0.0046 | surviving fraction (DOXORUBICIN; 1000 nM): 0.0273 ± 0.0051

H23 LUNG
surviving fraction ([1]; 0.5 nM): 0.958 ± 0.041 | surviving fraction ([1]; 1 nM): 0.998 ± 0.065 | surviving fraction ([1]; 5 nM): 0.96 ± 0.053 | surviving fraction ([1]; 10 nM): 1.01 ± 0.054 | surviving fraction ([1]; 50 nM): 0.983 ± 0.02 | surviving fraction ([1]; 100 nM): 1.02 ± 0.013 | surviving fraction ([1]; 500 nM): 1.02 ± 0.029 | surviving fraction ([1]; 1000 nM): 1.02 ± 0.079 | surviving fraction (DOXORUBICIN; 0.5 nM): 1.01 ± 0.016 | surviving fraction (DOXORUBICIN; 1 nM): 1.03 ± 0.027 | surviving fraction (DOXORUBICIN; 5 nM): 1 ± 0.034 | surviving fraction (DOXORUBICIN; 10 nM): 0.629 ± 0.058 | surviving fraction (DOXORUBICIN; 50 nM): 0.403 ± 0.031 | surviving fraction (DOXORUBICIN; 100 nM): 0.237 ± 0.028 | surviving fraction (DOXORUBICIN; 500 nM): 0.0293 ± 0.0015 | surviving fraction (DOXORUBICIN; 1000 nM): 0.0267 ± 0.0021

HCC78 LUNG
surviving fraction ([1]; 0.5 nM): 0.977 ± 0.31 | surviving fraction ([1]; 1 nM): 0.856 ± 0.038 | surviving fraction ([1]; 5 nM): 0.997 ± 0.23 | surviving fraction ([1]; 10 nM): 0.968 ± 0.07 | surviving fraction ([1]; 50 nM): 0.935 ± 0.19 | surviving fraction ([1]; 100 nM): 0.917 ± 0.093 | surviving fraction ([1]; 500 nM): 0.964 ± 0.097 | surviving fraction ([1]; 1000 nM): 0.941 ± 0.084 | surviving fraction (DOXORUBICIN; 0.5 nM): 0.894 ± 0.24 | surviving fraction (DOXORUBICIN; 1 nM): 0.733 ± 0.17 | surviving fraction (DOXORUBICIN; 5 nM): 0.63 ± 0.1 | surviving fraction (DOXORUBICIN; 10 nM): 0.538 ± 0.083 | surviving fraction (DOXORUBICIN; 50 nM): 0.0747 ± 0.013 | surviving fraction (DOXORUBICIN; 100 nM): 0.0363 ± 0.0042 | surviving fraction (DOXORUBICIN; 500 nM): 0.0317 ± 0.0015 | surviving fraction (DOXORUBICIN; 1000 nM): 0.0217 ± 0.0042

HCC202 BREAST
surviving fraction ([1]; 0.5 nM): 1.05 ± 0.052 | surviving fraction ([1]; 1 nM): 1.31 ± 0.39 | surviving fraction ([1]; 5 nM): 1.3 ± 0.53 | surviving fraction ([1]; 10 nM): 1.22 ± 0.13 | surviving fraction ([1]; 50 nM): 1.27 ± 0.32 | surviving fraction ([1]; 100 nM): 1.41 ± 0.073 | surviving fraction ([1]; 500 nM): 1.13 ± 0.14 | surviving fraction ([1]; 1000 nM): 1.24 ± 0.061 | surviving fraction (DOXORUBICIN; 0.5 nM): 1.2 ± 0.18 | surviving fraction (DOXORUBICIN; 1 nM): 1.26 ± 0.26 | surviving fraction (DOXORUBICIN; 5 nM): 0.896 ± 0.058 | surviving fraction (DOXORUBICIN; 10 nM): 1.04 ± 0.49 | surviving fraction (DOXORUBICIN; 50 nM): 0.697 ± 0.069 | surviving fraction (DOXORUBICIN; 100 nM): 0.457 ± 0.065 | surviving fraction (DOXORUBICIN; 500 nM): 0.0987 ± 0.019 | surviving fraction (DOXORUBICIN; 1000 nM): 0.0423 ± 0.0078
